TGI and GI50 data for 14 molecules are collected here from PubChem BioAssay (NCI).

Common to all, as to assay: growth of human tumour cells (NCI), 48 h
The test system of assay [1] is 786-0 renal.
Assay [2] relates to COLO 205 colon.
Assay [3] has as its system NCI-H522 lung.
For assay [4], the system named is OVCAR-8 ovarian.
The subject of assay [5] is SF-295 CNS.
The subject of assay [6] is SNB-75 CNS.
Assay [7] relates to UACC-257 melanoma.
Assay [8] relates to MOLT-4 leukemia.
For assay [9], the system named is SR leukemia.

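Five compound concentrations were applied to cells in 96-well plates for 48 hours; endpoints were derived by simple linear interpolation of the resulting dose-response curve. GI50 = concentration required for 50% inhibition of growth. TGI: total growth inhibition.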

As for `CC1=C(CC/C(C)=C/CCC2(C)CCC([C@H](C)C(=O)O)OO2)C(C)(C)CCC1` (some centres undefined) (tested in a mixture with another compound), the TGI in assay [1], in assay [2], in assay [3], in [4], in assay [5] and in [6] was > 100 µM throughout. Besides, the TGI in [7] was > 100 µM.

In the case of `COc1cc2c(C#N)n3c(c2cc1OC)C(=O)C(c1ccccc1)Oc1ccccc1-3` (centres undefined), the GI50 in [1] was 5.7 µM; in assay [8] it was 5.37 µM; in [4] it was 2.76 µM; in assay [5], 4.1 µM; in [6], 4.39 µM; in [9] it was 2.58 µM. Besides, the TGI in [1] was 39.1 µM; in [8], > 100 µM; in [4], > 100 µM; in [5], > 100 µM; in assay [6], 24.6 µM; in assay [9] it was > 100 µM.

As to `C/C(=C\c1ccccc1)C(O)S(=O)(=O)O` (centres undefined), the TGI in assay [1], in [2], in assay [8], in assay [3], in assay [4] and in assay [5] was > 100 µM each time. Also, the TGI in assay [6], in assay [9] and in assay [7] was > 100 µM in each case.

In the case of `C=CC1(C)/C(=N\O)C(C)(CC)C(=O)N1O` (centres undefined), the TGI in assay [1], in assay [2], in [8], in [3], in [4] and in assay [5] was > 100 µM throughout. Also, the TGI in assay [6], in assay [9] and in [7] was > 100 µM throughout.

`COc1ccc(-c2ccc(=O)oc2-c2cc(OC)c(OC)c(OC)c2)cc1O`: the GI50 is < 0.0228 µM in assay [1]; 2.21 µM in assay [2]; 0.0512 µM in assay [8]; 0.0124 µM in [3]; 0.0498 µM in assay [4]; 0.0157 µM in assay [5]. Also, the GI50 was 0.0389 µM in [6] and 0.099 µM in [7]. Moreover, the TGI in assay [1] was 13.9 µM; in [2], > 37.5 µM; in [8], > 100 µM; in [3], 0.0944 µM; in assay [4] it was > 100 µM; in [5], > 100 µM. Further, the TGI in [6] and in [7] was > 100 µM throughout.

For the molecule `COc1cccc(C(=O)O)c1Cc1cccc2ccccc12`, the TGI in assay [1], in assay [2], in [8], in assay [3], in assay [4] and in assay [5] was > 100 µM throughout. Further, the TGI in [6], in [9] and in assay [7] was > 100 µM in each case.

Regarding `COC(=O)/C1=C/C2CC(/C=C(/c3ccccc3)C(=O)O1)C2`, the TGI in assay [1] was 89.1 µM; in assay [2], 41.7 µM; in assay [8] it was 62 µM; in [3], 37.9 µM; in [4], 80.6 µM; in assay [5], > 100 µM. Moreover, the values for the TGI in assay [6] and in [7] were 35.4 µM and 23.2 µM, respectively.

As for `CP(=O)(CCSc1ccccc1)c1ccccc1` (centres undefined), the TGI in [1], in [2], in [8], in assay [4], in assay [5] and in assay [6] was > 100 µM each time. In addition, the TGI in assay [9] and in [7] was > 100 µM in each case.

Take `O=S(O)CCCCSSCCCCS(=O)(O)=S`: the TGI in assay [1] is > 100 µM; in assay [2], > 100 µM; in assay [8] it was > 100 µM; in [3], 65.6 µM; in assay [4], > 100 µM; in assay [5] it was > 100 µM. The TGI in assay [6] was 92.1 µM; in [7] it was > 100 µM.

For `c1ccc2c(c1)[Se]c1ccccc1[Se]2`, the TGI in assay [1] was > 100 µM; in [2], > 100 µM; in assay [8], > 100 µM; in assay [3], > 100 µM; in assay [4], > 100 µM; in assay [5], 73.8 µM. Further, the values for the TGI in [6], in [9] and in assay [7] were 64.9 µM, > 100 µM and > 100 µM, respectively.

Turning to `CC(C)c1cccc2sc(NC(=O)C(=O)CC(=O)c3ccc(F)cc3)nc12`, the TGI in [1], in assay [2], in assay [3], in assay [4], in [5] and in assay [6] was > 100 µM throughout. For the same molecule, the TGI in assay [7] is > 100 µM.

On to `CN1NC(c2ccccc2)=C(C#N)C(=O)CC1c1ccccc1Cl` (centres undefined), for which the TGI in assay [1], in [2], in assay [8], in assay [3], in [5] and in assay [6] was > 100 µM in each case. For the same molecule, the TGI in assay [9] and in [7] was > 100 µM throughout.

On to `CCC(=O)[O-].CCC(=O)[O-].N.N.N.N.[Co+3].[O-][Cl+3]([O-])([O-])[O-]`, for which the GI50 in assay [1], in assay [2], in [8], in assay [3], in assay [4] and in assay [5] was > 100 µM each time. Further, the GI50 in assay [6] and in [7] was > 100 µM in each case. For the same molecule, the TGI in [1], in [2], in assay [8], in [3], in [4] and in assay [5] was > 100 µM in each case. In addition, the TGI in assay [6] and in assay [7] was > 100 µM throughout.

For the molecule `NC(N)=NS(=O)(=O)c1ccc(NC(=O)c2ccc(Cl)c3c(Nc4ccc(S(=O)(=O)N=C(N)N)cc4)c4ccccc4nc23)cc1`, the TGI in [1], in assay [2], in assay [8], in assay [3], in assay [4] and in assay [5] was > 100 µM each time. The TGI in [6] is 98.5 µM; in assay [7] it was > 100 µM.
